# Data as given in ChEMBL document CHEMBL1126819, “Amino acid bioisosteres: design of 2-quinolone derivatives as glycine-site N-methyl-D-aspartate receptor antagonists” (Bioorg Med Chem Lett, 1993).
# Legend:
# Glutamate NMDA receptor = assay type: cell membranes, Rattus norvegicus, Membrane
# Description: Displacement of [3H]L-689,560 from NMDA receptor glycine site of rat brain membranes
# Rattus norvegicus = species: Rattus norvegicus; test: Tested for ability to inhibit NMDA-induced depolarizations in rat cortical slices; assay type: functional
# [1] = Dissociation constant pKa was determined; assay type: physicochemical
SMILES,IC50 (Glutamate NMDA receptor) [µM],pKa [1],Kb (Rattus norvegicus) [µM]
C[C@@H]1CN(O)C(=O)[C@@H]1N,2.7,–,–
O=[N+]([O-])c1cc([N+](=O)[O-])c2nc(O)c(O)nc2c1,0.17,6.5,1.2
CCc1cc(Cl)cc2nc(O)c(-c3ccccc3)c(O)c12,0.0069,–,–
O=c1cc(O)c2ccc(Cl)cc2[nH]1,> 300,–,–
O=c1[nH]c2cc(Cl)ccc2c(O)c1-c1ccccc1,0.17,5.4,0.88
O=C(O)c1cc(O)c2c(I)cc(Cl)cc2n1,0.014,–,0.41
O=C(O)c1cc(O)c2ccc(Cl)cc2n1 [7-CHLOROKYNURENIC ACID],–,–,7

# The remaining compounds from weak to strong by IC50 (Glutamate NMDA receptor), led by results:
IC50 (Glutamate NMDA receptor) [µM],pKa [1],SMILES,Kb (Rattus norvegicus) [µM]
~100,–,Oc1nc2cc(Cl)ccc2c(O)c1C1CCCCC1,–
6.5,–,COC(=O)c1c(O)c2ccc(Cl)cc2[nH]c1=O,–
3.2,–,O=C(c1ccccc1)c1c(O)nc2cc(Cl)ccc2c1O,–
0.41,–,O=C1Nc2cc(Cl)ccc2CC1[N+](=O)[O-] (stereo not drawn),6.7
0.097,–,Oc1nc2cc(Cl)cc(Cl)c2c(O)c1-c1ccccc1,–
0.064,–,O=C(O)c1cc(O)c2c(Cl)cc(Cl)cc2n1,1.9
0.004,~4,O=C(Nc1ccccc1)N[C@H]1C[C@H](C(=O)O)Nc2cc(Cl)cc(Cl)c21,0.11
